The nature of this assay: Ketogenesis in rats in vivo (plasma (R)-3-hydroxybutyrate after oral gavage). Details: species or system Male Sprague-Dawley rats. The settings on record: rat, ANOVA/Dunnett P<0.05. As to the method:
Male Sprague-Dawley rats (weight range 200-250 g Charles River, Margate, Kent) were group housed in polypropylene cages at a temperature of 21±4° C. and 55±20% humidity and on a standard light/dark cycle. Animals had free access to a standard pelleted rat diet and tap water at all times. Animals were accustomed to these conditions for at least one week before experimentation.
Compounds were administered by oral gavage (po). Control animals received the appropriate vehicle via the same route. The experiment was performed over 2 days (ie 2 compounds were tested per day). Blood samples were taken by cardiac puncture after the animals were killed by a British Home Office Schedule 1 method. The terminal blood sample was collected into suitable plasma preparation tubes (EDTA-coated tubes). Plasma samples were initially frozen on dry ice and transferred to a −75° C. freezer until required for subsequent analysis (spectrophotometric analysis of (R)-3-hydroxybutyrate).
Sodium DL-β-hydroxybutyrate (H-6501 Lot 111K2618) was obtained from Sigma A stock solution of β-hydroxybutyrate (40 mM DL racemate equivalent to 20 mM D-isomer) was prepared in 0.9% saline solution, kept at 4° C. and used to generate appropriate dilutions for an assay standard curve.
Commercial clinical assay kits for the determination of D-β-hydroxybutyrate were obtained from Randox Laboratories (Antrim, UK). Kits were obtained in two pack sizes (Ranbut RB1007: 10×10 ml and RB1008: 10×50 ml) but were otherwise identical. […] The kit relies on measuring the appearance of NADH via the activity of β-hydroxybutyrate dehydrogenase measured as an increase of OD340 nm. […]
The protocol supplied with the Ranbut kits was for a discrete (cuvette-based) spectrophotometzic assay, so the protocol was modified for suitability with a 96-well microplate format using blank, flat-bottomed microplates (Greiner PS 655101 Lot 98 35 01). […] Standard dilutions and samples were pipetted a single plate at a time and preincubated at 37° C. for 15 minutes in the sample compartment of a Molecular Devices VERSAmax tunable microplate reader: The appropriate volume of assay reagent was reconstituted, according to instructions, using distilled water and preincubated at 37° C. for 15 minutes using a static water bath. […] The plate was reloaded, mixed and then the change in OD340 nm followed in kinetic mode with a reading at every 15 seconds for a total of 2 minutes. The reaction rate was then determined from the OD increase over a suitable 1 minute period, after allowing a necessary period for the reaction rate to settle. The rate between 45 seconds and 105 seconds was used as the default measuring period, though occasionally a different period was used as necessary (eg if an aberrant reading was obtained at one of these time-points). […]

Take “sorbitol 3-hydroxybutyrate tri-ester [KTX 0313]”: the “increases in plasma 3-hydroxybutyrate concentrations (ketogenesis)” value (“increases” for short) (300 mg/kg po, blood sampling 30, 120, 240 min vs vehicle baseline) is listed as “significant increases”.

In the case of “glucose (R)-3-hydroxybutyrate ester [KTX 0310]”, the “increases” value (440 mg/kg po, blood sampling 30, 120, 240 min vs vehicle) is given as “did not evoke significant ketogenesis”.

Consider “arabinose (R)-3-hydroxybutyrate ester [KTX 0312]”, for which, under “351 mg/kg po, blood sampling 30, 120, 240 min vs vehicle”, the “increases” value is reported as “did not evoke significant ketogenesis”.

With “fructose (R)-3-hydroxybutyrate ester [KTX 0311]”, the “increases” value (441 mg/kg po, blood sampling 30, 120, 240 min vs vehicle baseline) was “significant increases”.
